According to PubChem BioAssay (NCI):
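48-hour exposure; five concentrations; linearly interpolated endpoints. Abbreviation: GI50, concentration required for 50% inhibition of growth. TGI: concentration producing complete growth inhibition.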

What was measured:
Test in all cases: DTP human tumour cell line panel, 48 h
[1] = system: 786-0 renal
[2] = system: A498 renal
[3] = system: A549 NSCLC
[4] = system: ACHN renal
[5] = system: BT-549 breast
[6] = system: CAKI-1 renal
[7] = system: CCRF-CEM leukemia
[8] = system: COLO 205 colon
[9] = system: DU-145 prostate
[10] = system: EKVX NSCLC
[11] = system: HCC-2998 colon
[12] = system: HCT-116 colon
[13] = system: HCT-15 colon
[14] = system: HL-60(TB) leukemia
[15] = system: HOP-62 NSCLC
[16] = system: HOP-92 NSCLC
[17] = system: HS 578T breast
[18] = system: HT29 colon
[19] = system: IGROV1 ovarian
[20] = system: K-562 leukemia
[21] = system: KM12 colon
[22] = system: LOX IMVI melanoma
[23] = system: M14 melanoma
[24] = system: MALME-3M melanoma
[25] = system: MCF7 breast
[26] = system: MDA-MB-231 breast
[27] = system: MDA-MB-435
[28] = system: MDA-MB-468 breast
[29] = system: MOLT-4 leukemia
[30] = system: NCI-H226 lung
[31] = system: NCI-H23 lung
[32] = system: NCI-H460 lung
[33] = system: NCI-H522 lung
[34] = system: NCI/ADR-RES ovarian
[35] = system: OVCAR-3 ovarian
[36] = system: OVCAR-4 ovarian
[37] = system: OVCAR-5 ovarian
[38] = system: OVCAR-8 ovarian
[39] = system: PC-3 prostate
[40] = system: RPMI-8226 leukemia
[41] = system: RXF 393 renal
[42] = system: SF-268 CNS
[43] = system: SF-295 CNS
[44] = system: SF-539 CNS
[45] = system: SK-MEL-2 melanoma
[46] = system: SK-MEL-28 melanoma
[47] = system: SK-MEL-5 melanoma
[48] = system: SK-OV-3 ovarian
[49] = system: SN12C renal
[50] = system: SNB-19 CNS
[51] = system: SNB-75 CNS
[52] = system: SR leukemia
[53] = system: SW-620 colon
[54] = system: T-47D breast
[55] = system: TK-10 renal
[56] = system: U251 CNS
[57] = system: UACC-257 melanoma
[58] = system: UACC-62 melanoma
[59] = system: UO-31 renal

SMILES: O=C(N/N=C/c1ccc(-c2ccc(O)cc2)o1)c1[nH]c2ccc(Br)cc2c1-c1ccccc1
- GI50 [1]: 1550 nM
- TGI [1]: 8430 nM
- GI50 [2]: 8210 nM
- TGI [2]: 21900 nM
- GI50 [3]: 987 nM
- TGI [3]: 16200 nM
- GI50 [4]: 500 nM
- TGI [4]: 8070 nM
- GI50 [5]: 415 nM
- TGI [5]: 3740 nM
- GI50 [6]: 969 nM
- TGI [6]: 15500 nM
- GI50 [7]: 474 nM
- TGI [7]: 26900 nM
- GI50 [8]: 1900 nM
- TGI [8]: 3930 nM
- GI50 [9]: 366 nM
- TGI [9]: 3850 nM
- GI50 [10]: 3440 nM
- TGI [10]: 15200 nM
- GI50 [11]: 860 nM
- TGI [11]: 3670 nM
- GI50 [12]: 393 nM
- TGI [12]: 3550 nM
- GI50 [13]: 354 nM
- TGI [13]: 5300 nM
- GI50 [14]: 257 nM
- TGI [14]: 713 nM
- GI50 [15]: 870 nM
- TGI [15]: 19200 nM
- GI50 [16]: 2750 nM
- TGI [16]: 11200 nM
- GI50 [17]: 410 nM
- TGI [17]: 1290 nM
- GI50 [18]: 1920 nM
- TGI [18]: 7020 nM
- GI50 [19]: 617 nM
- TGI [19]: 17800 nM
- GI50 [20]: 371 nM
- TGI [20]: 17900 nM
- GI50 [21]: 355 nM
- TGI [21]: 4510 nM
- GI50 [22]: 356 nM
- TGI [22]: 3220 nM
- GI50 [23]: 3330 nM
- TGI [23]: 22800 nM
- GI50 [24]: 2580 nM
- TGI [24]: 22400 nM
- GI50 [25]: 332 nM
- TGI [25]: 6660 nM
- GI50 [26]: 323 nM
- TGI [26]: 790 nM
- GI50 [27]: 248 nM
- TGI [27]: 602 nM
- GI50 [28]: 318 nM
- TGI [28]: 2660 nM
- GI50 [29]: 531 nM
- TGI [29]: 5040 nM
- GI50 [30]: 2950 nM
- TGI [30]: 22400 nM
- GI50 [31]: 378 nM
- TGI [31]: 12700 nM
- GI50 [32]: 342 nM
- TGI [32]: 1270 nM
- GI50 [33]: 208 nM
- TGI [33]: 519 nM
- GI50 [34]: 292 nM
- TGI [34]: 592 nM
- GI50 [35]: 275 nM
- TGI [35]: 873 nM
- GI50 [36]: 3560 nM
- TGI [36]: 20800 nM
- GI50 [37]: 515 nM
- TGI [37]: 13800 nM
- GI50 [38]: 363 nM
- TGI [38]: 900 nM
- GI50 [39]: 569 nM
- TGI [39]: 14100 nM
- GI50 [40]: 442 nM
- TGI [40]: > 22200 nM
- GI50 [41]: 414 nM
- TGI [41]: 2180 nM
- GI50 [42]: 654 nM
- TGI [42]: 12700 nM
- GI50 [43]: 611 nM
- TGI [43]: 2900 nM
- GI50 [44]: 240 nM
- TGI [44]: 536 nM
- GI50 [45]: 378 nM
- TGI [45]: 3680 nM
- GI50 [46]: 1960 nM
- TGI [46]: 18000 nM
- GI50 [47]: 472 nM
- TGI [47]: 1690 nM
- GI50 [48]: 493 nM
- TGI [48]: 16800 nM
- GI50 [49]: 417 nM
- TGI [49]: 2870 nM
- GI50 [50]: 577 nM
- TGI [50]: 14600 nM
- GI50 [51]: 3130 nM
- TGI [51]: 20000 nM
- GI50 [52]: 490 nM
- TGI [52]: 3230 nM
- GI50 [53]: 444 nM
- TGI [53]: 16100 nM
- GI50 [54]: 2670 nM
- TGI [54]: 26500 nM
- GI50 [55]: 4560 nM
- TGI [55]: 19600 nM
- GI50 [56]: 419 nM
- TGI [56]: 10300 nM
- GI50 [57]: 4690 nM
- TGI [57]: 23100 nM
- GI50 [58]: 527 nM
- TGI [58]: 15100 nM
- GI50 [59]: 2050 nM
- TGI [59]: 16200 nM
